Experimental findings from patent publication US9133206B2, “Benzodiazepine and pyridodiazepine derivatives” (AbbVie Inc., priority 2010, dated 2015) are described below.

Each structure is given as a SMILES string.

This assay deals with SK-N-SH human neuroblastoma cells. In words: Serum Deprivation/JC-1 Mitochondrial Membrane Potential (MMP) Assay. Type of assay: cell-based. The following applies: Homo sapiens, SK-N-SH; for EC50: 18 h, serum deprivation ~18 hours, JC-1 ratio normalized to peak value for 10 μM dimebolin, single curve fit to mean data of n=2-3; for Emax: percent maximal intensity in JC-1 ratio normalized to peak value for 10 μM dimebolin, serum deprivation, read-out: JC-1 max %. From the text:
The method also involves a high-throughput assay using serum-deprivation conditions involving neuronal cells to screen for compounds that increase or preserve mitochondrial membrane potential. Such compounds can be found to aid in rescuing cells from energy-depletion that occurs in several neurodegenerative states. Mitochondrial-mediated apoptosis occurs in response to a wide range of apoptotic stimuli including p^53, c-myc, DNA damage, prooxidants, chemotherapeutic agents, serum starvation and death receptor activation (Lin C—H., Lu Y-Z., Cheng, F-C., Chu L-F. and Hsuch C-M. Bax-regulated mitochondrial-mediated apoptosis is responsible for the in vitro ischemia induced neuronal cell death of Sprague Dawley rat. Neuroscience Lett. 2005, 387, 22-27).
Thus, this stress inducer, serum deprivation, combined with monitoring changes in the mitochondrial membrane potential in a 96-well format allows for the establishment of an efficient high-throughput screen (HTS) in order to evaluate the ability of compounds to increase mitochondrial membrane potential in the presence of stress and preserve health of the cell. Exemplary procedures for conducting such high-throughput assay are provided below.
SK-N-SH human neuroblastoma cells obtained from American Type Culture Collection (Rockville, Md.) were maintained in the log phase of growth in Minimal Essential Media (MEM), 10% heat inactivated fetal calf serum and 100 units/mL antibiotic-antimycotic (AA). Cells were cultured and maintained in a humidified incubator at 37° C. under 5% CO2 and 95% air. Cells were trypsinized (0.25%) and subcultured every 3 days and used from 15-18 passages. All cell culture supplies were obtained from Invitrogen (Carlsbad, Calif.).
SK-N-SH cells were plated 2-3 days in advance at a concentration of 50,000 cells/well onto collagen coated black-walled 96 well plates (Becton-Dickinson, Bedford, Mass.) in a total volume of […]. On day of experimental treatment, the media containing serum was aspirated from each well and rinsed once with MEM/1% AA without serum. The cells then were incubated overnight in 100 μL of MEM/1% AA (no serum) with and without dimebolin or novel chemical entities overnight for ˜18 hours. The following day, JC-1 dye (5,5′,6,6′-tetrachloro-1,1′,3,3′-tetraethylbenzimidazolcarbocyanide) was diluted 1:10 into MEM media according to the JC-1 Mitochondrial Membrane Potential Assay Kit: (Cayman Chemical Company, Ann Arbor, Mich.) and then 10 μL of the JC-1 dye solution was added to each well. The plates were centrifuged for 5 minutes at 400×g at room temperature followed by 40 minute incubation at 37° C. The plates were washed twice with 200 μL of provided Assay Buffer followed an addition of 100 μL of Assay Buffer to each well. The plates were read with an excitation and emission of 560 nm and 595 nM for red fluorescence and with an excitation and emission of 485 nm and 535 nM for green fluorescence to determine the final JC-1 value taking the red to green fluorescence ratio. This assay is based on change in mitochondrial membrane potential (MMP) using this lipophilic cationic dye, JC-1, by monitoring the changes in the ratio of red to green fluorescence as the MMP depolarizes. This change in MMP reflects the health of the cell with healthy, viable cells have a high JC-1 ratio and high MMP whereas apoptotic, unhealthy cells have a low JC-1 ratio or low MMP.
For the ability of compounds to reverse the stress due to serum deprivation and increase the JC-1 ratio, the percent maximal intensity in JC-1 ratio was normalized to that induced by the peak value for 10 μM dimebolin and plotted against the compound concentration to calculate EC50 values and to control for plate-to-plate variability. Concentration-response data were analyzed using GraphPad Prism (San Diego, Calif.); the EC50 values were derived from a single curve fit to the mean data of n=2-3, in duplicates. […]

A word on the EC50: it is the concentration at which the effect is half-maximal. As to `Fc1cc(F)cc(CN2Cc3ccccc3N3CCN(Cc4ccccc4)CC3C2)c1` (centres unmarked) [Example 24, 3-benzyl-6-(3,5-difluorobenzyl)-1,2,3,4,4a,5,6,7-octahydropyrazino[1,2-a][1,4]benzodiazepine], the EC50 came out at 4.77 µM and the Emax is 166%.
The like results for `Fc1ccc(CN2Cc3ccccc3N3CCN(Cc4ccccc4)CC3C2)cc1F` (centres unmarked) [Example 25, 3-benzyl-6-(3,4-difluorobenzyl)-1,2,3,4,4a,5,6,7-octahydropyrazino[1,2-a][1,4]benzodiazepine] were, in that order, 15.7 µM and 128%.
As to `c1ccc(CN2CCN3c4ccccc4NCCC3C2)cc1` (centres unmarked) [Example 26, 3-benzyl-1,2,3,4,4a,5,6,7-octahydropyrazino[1,2-a][1,5]benzodiazepine], the EC50 was 3.47 µM and the Emax was determined as 210%.
Turning to `O=C(Cc1ccc(Cl)cc1)N1CCC2CN(Cc3ccccc3)CCN2c2ccccc21` (centres unmarked) [Example 27, 1-(3-benzyl-2,3,4,4a,5,6-hexahydropyrazino[1,2-a][1,5]benzodiazepin-7(1H)-yl)-2-(4-chlorophenyl)ethanone], the EC50 was 4.44 µM and the Emax stood at 149%.
For the compound `c1ccc(CN2CCN3c4ccccc4CN(Cc4cccnc4)CC3C2)cc1` (centres unmarked) [Example 28, 3-benzyl-6-(pyridin-3-ylmethyl)-1,2,3,4,4a,5,6,7-octahydropyrazino[1,2-a][1,4]benzodiazepine], the EC50 was determined as 9.59 µM and the Emax amounted to 88%.
Turning to `c1ccc(CN2CCN3c4ccccc4CN(Cc4ccccn4)CC3C2)cc1` (centres unmarked) [Example 29, 3-benzyl-6-(pyridin-2-ylmethyl)-1,2,3,4,4a,5,6,7-octahydropyrazino[1,2-a][1,4]benzodiazepine], the EC50 was 4.87 µM and the Emax stood at 221%.
Take `c1ccc(CN2CCN3c4ccccc4CN(Cc4ccncc4)CC3C2)cc1` (centres unmarked) [Example 30, 3-benzyl-6-(pyridin-4-ylmethyl)-1,2,3,4,4a,5,6,7-octahydropyrazino[1,2-a][1,4]benzodiazepine]: the EC50 came to 3.6 µM and the Emax was 216%.
For the compound `O=C(c1ccc(Br)cc1)N1Cc2ccccc2N2CCN(Cc3ccccc3)CC2C1` (centres unmarked) [Example 31, (3-benzyl-1,2,3,4,4a,5-hexahydropyrazino[1,2-a][1,4]benzodiazepin-6(7H)-yl)(4-bromophenyl)methanone], the EC50 worked out at 1.97 µM and the Emax was 218%.
For `Cc1ccc(CN2Cc3ccccc3N3CCN(Cc4ccccc4)CC3C2)cn1` (centres unmarked) [Example 32, 3-benzyl-6-[(6-methylpyridin-3-yl)methyl]-1,2,3,4,4a,5,6,7-octahydropyrazino[1,2-a][1,4]benzodiazepine], in that order: 1.98 µM and 140%.
`c1ccc(CN2CCN3c4ccccc4CN(Cc4cnc5ccccc5c4)CC3C2)cc1` (centres unmarked) [Example 33, 3-benzyl-6-(quinolin-3-ylmethyl)-1,2,3,4,4a,5,6,7-octahydropyrazino[1,2-a][1,4]benzodiazepine]: the EC50 worked out at 1.3 µM and the Emax was found to be 192%.
With `Clc1ccc(CN2Cc3ccccc3N3CCN(Cc4ccccc4)CC3C2)cn1` (centres unmarked) [Example 34, 3-benzyl-6-[(6-chloropyridin-3-yl)methyl]-1,2,3,4,4a,5,6,7-octahydropyrazino[1,2-a][1,4]benzodiazepine], the EC50 was 2.94 µM and the Emax was 213%.
In the case of `FC(F)(F)c1ccc(CN2Cc3ccccc3N3CCN(Cc4ccccc4)CC3C2)cn1` (centres unmarked) [Example 35, 3-benzyl-6-{[6-(trifluoromethyl)pyridin-3-yl]methyl}-1,2,3,4,4a,5,6,7-octahydropyrazino[1,2-a][1,4]benzodiazepine], the EC50 stood at 2.86 µM and the Emax worked out at 159%.
Consider `c1ccc(CN2CCN3c4ccccc4CN(Cc4ccnc5ccccc45)CC3C2)cc1` (centres unmarked) [Example 36, 3-benzyl-6-(quinolin-4-ylmethyl)-1,2,3,4,4a,5,6,7-octahydropyrazino[1,2-a][1,4]benzodiazepine], for which the EC50 stood at 1.05 µM and the Emax is 137%.
Consider `c1ccc(CN2CCN3c4ccccc4CN(Cc4cncc5ccccc45)CC3C2)cc1` (centres unmarked) [Example 37, 3-benzyl-6-(isoquinolin-4-ylmethyl)-1,2,3,4,4a,5,6,7-octahydropyrazino[1,2-a][1,4]benzodiazepine], for which the EC50 came to 1.21 µM and the Emax is 172%.
As for `O=C1NCc2ccccc2N2CCN(Cc3ccc(F)cc3)CC12` (centres unmarked) [Example 38, 3-(4-fluorobenzyl)-2,3,4,4a,6,7-hexahydropyrazino[1,2-a][1,4]benzodiazepin-5(1H)-one], the EC50 is over 30 µM and the Emax came to 27%.
Take `Brc1ccc(CN2Cc3ccccc3N3CCN(Cc4ccccc4)CC3C2)cn1` (centres unmarked) [Example 39, 3-benzyl-6-[(6-bromopyridin-3-yl)methyl]-1,2,3,4,4a,5,6,7-octahydropyrazino[1,2-a][1,4]benzodiazepine]: the EC50 was 3.69 µM and the Emax was 200%.
For `Fc1ccc(CN2CCN3c4ccccc4CNCC3C2)cc1` (centres unmarked) [Example 40, 3-(4-fluorobenzyl)-1,2,3,4,4a,5,6,7-octahydropyrazino[1,2-a][1,4]benzodiazepine], the EC50 came to 11.8 µM and the Emax was determined as 224%.
For the compound `O=C(c1ccc(Br)cc1)N1CCC2CN(Cc3ccccc3)CCN2c2ccccc21` (centres unmarked) [Example 41, (3-benzyl-2,3,4,4a,5,6-hexahydropyrazino[1,2-a][1,5]benzodiazepin-7(1H)-yl)(4-bromophenyl)methanone], the EC50 was 4.67 µM and the Emax was 186%.
As to `Brc1ccc(CN2Cc3ccccc3N3CCN(Cc4ccccc4)CC3C2)nc1` (centres unmarked) [Example 42, 3-benzyl-6-[(5-bromopyridin-2-yl)methyl]-1,2,3,4,4a,5,6,7-octahydropyrazino[1,2-a][1,4]benzodiazepine], the EC50 stood at 3.09 µM and the Emax amounted to 189%.
As to `O=C(c1ccncc1)N1CCC2CN(Cc3ccccc3)CCN2c2ccccc21` (centres unmarked) [Example 43, (3-benzyl-2,3,4,4a,5,6-hexahydropyrazino[1,2-a][1,5]benzodiazepin-7(1H)-yl)(pyridin-4-yl)methanone], the EC50 stood at 6.76 µM and the Emax is 115%.
Consider `Clc1ccc(CCN2CCC3CN(Cc4ccccc4)CCN3c3ccccc32)cc1` (centres unmarked) [Example 44, 3-benzyl-7-[2-(4-chlorophenyl)ethyl]-1,2,3,4,4a,5,6,7-octahydropyrazino[1,2-a][1,5]benzodiazepine], for which the EC50 was found to be 3 µM and the Emax came out at 291%.
For the compound `c1ccc(CN2CCN3c4ccccc4N(Cc4ccccc4)CCC3C2)cc1` (centres unmarked) [Example 45, 3,7-dibenzyl-1,2,3,4,4a,5,6,7-octahydropyrazino[1,2-a][1,5]benzodiazepine], the EC50 worked out at 5.93 µM and the Emax came to 238%.
The like results for `Ic1ccc(CN2Cc3ccccc3N3CCN(Cc4ccccc4)CC3C2)cc1` (centres unmarked) [Example 46, 3-benzyl-6-(4-iodobenzyl)-1,2,3,4,4a,5,6,7-octahydropyrazino[1,2-a][1,4]benzodiazepine] were, in that order, 1.87 µM and 192%.
On to `Brc1ccc(CN2CCC3CN(Cc4ccccc4)CCN3c3ccccc32)cc1` (centres unmarked) [Example 47, 3-benzyl-7-(4-bromobenzyl)-1,2,3,4,4a,5,6,7-octahydropyrazino[1,2-a][1,5]benzodiazepine], for which the EC50 is 2.78 µM and the Emax stood at 273%.
As for `c1ccc(CN2CCN3c4ccccc4N(Cc4ccncc4)CCC3C2)cc1` (centres unmarked) [Example 48, 3-benzyl-7-(pyridin-4-ylmethyl)-1,2,3,4,4a,5,6,7-octahydropyrazino[1,2-a][1,5]benzodiazepine], the EC50 was 1.84 µM and the Emax worked out at 125%.
